US4859688A, “Method for the treatment and prevention of arteriosclerosis with nitrophenyl substituted dihydropyridines” (priority 1984, dated 1989)

Columns and labels:
[1] = tested on: thoracic aorta; assay: Inhibition of vitamin-D3-induced rise in Ca content of the thoracic aorta (Test 4); settings: for Ca content of the thoracic aorta (means± standard error): 10μg/kg 1-α hydroxyvitamin D3 orally once a day for 2 weeks; for ED50: Rattus norvegicus, po, 336 h, read-out: ED50, inhibition of vitamin-D3-induced rise in Ca content of the thoracic aorta
[2] = tested on: rabbit carotid artery; assay: Induction of intimal thickening of rabbit carotid artery by polyethylene cuff treatment (Test 2); assay type: in vivo, male Japanese white rabbits; settings: intramuscular once a day, 3 weeks, index scale 0-3
Method: Induction of intimal thickening of rabbit carotid artery by polyethylene cuff treatment Eight (8) male Japanese white rabbits weighing about 2 kg were used for each test group. The rabbits were anesthetized with 12.5 mg/kg petobarbital and the left carotid artery was isolated with care not to injure the surrounding tissues. A polyethylene cuff (1.5 cm long PE280, inner diameter 2.15 mm, outer diameter 3.25 mm, made by Becton Dickinson & Co.) was placed around the artery according to the technique reported by Rosnowski et al. (CR. Acad, Sci. Paris, 271 (1970) 1467). The rabbits were maintained for 3 weeks on normal diet and water. Test Compounds and vehicles were given intramuscularly once a day starting from the day of cuff-placement. At the end of the 3rd week, the rabbits were heparinized (500 U, i.v.), and the artery was removed, washed free of blood with saline, fixed by immersion in 10% formalin and divided into 8 cross segments about 2 mm long. The segments were embedded in paraffin and cut into transverse sections. These sections were stained with orcein. About 70 transverse sections were prepared from each artery and used for the quantitation of the Arteriosclerotic Index. Quantitation of Arteriosclerotic Index The arterial sections were observed by light microscopy and the Arteriosclerotic Index was scored as follows. 0: No thickening. 1: slight hyperplasia in the subendothelial space with intima-media ratio of about 1/10. 2: several layers of cells in the subendothelial space with intima-media ratio of about 1/5, or parts of the subendothelial space with more hyperplasia. 3: sever hyperplasia throughout the subendothelial space with intima-media ratio of more than 1/3.

[3] = tested on: rabbit carotid artery; assay: Effect on arteriosclerotic change induced by cuff in rabbit carotid artery (Test 1); assay type: in vivo; settings: intramuscular, 5 days each week, 3 weeks, index scale 0-3
Description: Effect on arteriosclerotic change induced by cuff in rabbit carotid artery
The arteriosclerosis which is characterized by intimal thickening was made in rabbits (about 2 kg weight) by the following method.
Under pentobarbital anesthesia, the left carotid artery was isolated from the surrounding tissue, put into a cuff (1.5 cm long PE-280) through a longitudinal slit and was returned to the place as it was. Then, the wound was sutured and the rabbits were recovered and fed with normal diet. Three weeks after surgery, the rabbits were anesthetized with pentobarbital and sections were taken of the carotid artery. The part of the artery covered by a cuff was examined under microscope for the arteriosclerotic index which was rated at 0, 1, 2 and 3 according to the degree of intimal thickening. For each rabbit, about 30 transverse sections were taken at random, and the mean arteriosclerotic index was used for the determination of the effect. Test Compound was suspended in 0.5% methyl cellulose and injected intramuscularly for 5 days each week beginning from one day after cuff treatment to one day before sacrifice. The injection volume was adjusted to 0.5 ml/kg.

[4] = tested on: rat aortic smooth muscle cells (SMC); assay: Inhibition of migration of smooth muscle cell (SMC), modified Boyden chamber (Test 3); assay type: cell-based, rat (male Wistar); settings: 5% zymosan-activated air pouch exudates as attractant, 8 hours, 37° C.
Method: Inhibition of migration of smooth muscle cell (SMC)
Preparation of inflammatory exudates from zymosan-activated air pouch in rats:
Inflammatory exudates were obtained according to the method of Konno and Tsurufuji [Br. J. Pharmacol., 80 (1983) 269]. Seven-week-old male Wistar rats were injected subcutaneously with 12 ml of air on the back to make a pouch. Twenty-four hours later 6 ml of 1.6% (W/V) zymosan suspension in 0.5% (W/V) methyl cellulose solution in saline was injected into the pouch to induce inflammation. After 3 days the inflammatory exudates were collected with pipets and centrifuged for 15 minutes at 2,000 G. The supernatant was stored at -80° C. until used.
Culture of rat aortic smooth muscle cells (SMC):
Rat aortic SMC were isolated and cultured by the method of Ross [J. Cell Biol. 50 (1971) 172]. […]
Migration of SMC was examined in modified Boyden chambers using a filter membrane with pores of 8 μm diameter [Atherosclerosis, 43 (1982) 143]. […] SMC migration was quantitated microscopically by counting the number of cells that migrated into the filter to a depth of 30μm. Ten high-power fields (HPF, x 400) were examined for each filter and cell migration was expressed as cells per 10 HPF.

| SMILES | Ca content of the thoracic aorta (means± standard error) ([1]; 0.1 mg/kg per os twice a day) | Ca content of the thoracic aorta (means± standard error) ([1]; 1 mg/kg per os twice a day) | Ca content of the thoracic aorta (means± standard error) ([1]; 10 mg/kg per os twice a day) | Ca content of the thoracic aorta (means± standard error) ([1]; 100 mg/kg per os twice a day) | ED50 [1] [mg/kg] | Arteriosclerotic Index (mean±standard error) ([2]; 1 mg/kg) | Arteriosclerotic Index (mean±standard error) ([2]; 10 mg/kg) | Arteriosclerotic Index ([3]; 1.0 mg/kg) | Arteriosclerotic Index ([3]; 10 mg/kg) | IC50 [4] [nM] |
| --- | --- | --- | --- | --- | --- | --- | --- | --- | --- | --- |
| COC(=O)C1=C(C#N)NC(C)=C(C(=O)OC(C)C)C1c1cccc([N+](=O)[O-])c1 (centres unmarked) [Dihydropyridine Compound A, Isopropyl ester of 6-cyano-5-methoxycarbonyl-2-methyl-4-(3-nitrophenyl)-1,4-dihydropyridine-3-carboxylic acid] | 94 ± 9 % of control | 57 ± 13 % of control | 27 ± 6 % of control | 8 ± 3 % of control | 2.2 | 0.85 ±0.15 | 0.61 ±0.19 | 0.85 ± 0.16 | 0.61 ± 0.21 | 0.033 |
| COC(=O)C1=C(C)NC(C)=C(C(=O)OC)C1c1ccccc1[N+](=O)[O-] [Nifedipine, Dimethyl ester of 2,6-dimethyl-4-(2-nitrophenyl)-1,4-dihydropyridine-3,5-dicarboxylic acid, reference compound] | – | 93 ± 15 % of control | 58 ± 15 % of control | 30 ± 10 % of control | 23.2 | 0.94 ±0.21 | 1.19 ±0.26 | – | – | 0.17 |
